Patent US20260028354A1, “TETRAHYDRONAPHTHALENE DERIVATIVES AS ESTROGEN RECEPTOR DEGRADERS” (REGENT OF THE UNIVERSITY OF MICHIGAN, priority 2022, published 2026)
Read-outs that look alike come from different tables or passages of the source.

Legend:
[1] = Cell growth assay (WST-8) for "B" compounds; format: cell-based; settings: T47D, read-out: Cell growth Inhibition in T47D cell line IC50
Procedure, shortened: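 Four-day compound exposure of cells plated at 1500/well the day before. Read-out is WST-8 (10%, 2.5 h, 37 °C) absorbance at 450 nm, normalized to vehicle control over three independent repeats.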

[2] = molecular target: ER (Homo sapiens (Human), UniProt P03372); assay: In-cell western blot analysis of ER for "B" compounds; format: cell-based; settings: 16 hours, read-out: ICW DC50
Procedure, shortened: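 ER levels given as a percentage of untreated/DMSO-treated wells (100%). Detection used primary antibodies for 2 h at room temperature followed by 680 and 800 nm fluorescent secondaries at 1:1000 for 1 h, read by LI-COR imaging.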

ER, sequence (P03372 whole entry): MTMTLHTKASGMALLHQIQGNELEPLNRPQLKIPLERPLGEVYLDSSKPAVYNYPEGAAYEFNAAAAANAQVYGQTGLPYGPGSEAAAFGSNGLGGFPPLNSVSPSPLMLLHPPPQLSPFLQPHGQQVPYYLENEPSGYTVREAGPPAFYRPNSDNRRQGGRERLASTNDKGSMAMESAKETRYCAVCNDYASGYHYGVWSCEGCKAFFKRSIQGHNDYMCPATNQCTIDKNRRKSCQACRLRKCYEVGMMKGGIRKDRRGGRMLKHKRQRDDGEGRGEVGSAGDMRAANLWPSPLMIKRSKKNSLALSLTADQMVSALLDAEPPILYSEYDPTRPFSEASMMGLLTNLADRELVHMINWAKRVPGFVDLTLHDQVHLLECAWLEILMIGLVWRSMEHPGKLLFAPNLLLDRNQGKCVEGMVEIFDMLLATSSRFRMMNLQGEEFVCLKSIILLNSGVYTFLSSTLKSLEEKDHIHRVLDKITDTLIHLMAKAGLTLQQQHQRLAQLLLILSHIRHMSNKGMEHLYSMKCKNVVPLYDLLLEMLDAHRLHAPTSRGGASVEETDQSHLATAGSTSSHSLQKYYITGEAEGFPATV

Compound | IC50 ([1]; T47D cell line) [nM] | DC50 [2] [nM] | IC50 [1] [nM]
O=C1CCC(N2Cc3cc4c(cc3C2=O)CC2(C4)CN(C[C@@H]3CCN(c4ccc([C@@H]5c6ccc(O)cc6CC[C@@H]5c5ccccc5)cc4)C3)C2)C(=O)N1 (stereo partly drawn) [Compound B217, 3-(1-(((S)-1-(4-((1R,2S)-6-hydroxy-2-phenyl-1,2,3,4-tetrahydronaphthalen-1-yl)phenyl)pyrrolidin-3-yl)methyl)-1′-oxo-5′,7′-dihydro-1'H-spiro[azetidine-3,6′-cyclopenta[f]isoindol]-2'(3'H)-yl)piperidine-2,6-dione] | 1 to 10 | > 100 | –
O=C1CCC(N2Cc3cc4c(cc3C2=O)OC[C@@H]2CN(CC3CCC5(CN(c6ccc([C@@H]7c8ccc(O)cc8CC[C@@H]7c7ccccc7)cc6)C5)OC3)CCN42)C(=O)N1 (stereo partly drawn) [Compound B334, 3-((4aS)-3-((2-(4-((1R,2S)-6-hydroxy-2-phenyl-1,2,3,4-tetrahydronaphthalen-1-yl)phenyl)-5-oxa-2-azaspiro[3.5]nonan-7-yl)methyl)-8-oxo-1,2,3,4,4a,5,8,10-octahydro-9H-pyrazino[1′,2′:4,5][1,4]oxazino[2,3-f]isoindol-9-yl)piperidine-2,6-dione] | < 1 | 10 to 100 | –
O=C1CCC(N2Cc3c(ccc4c3OCC43CCN(CC(=O)N4CC5(CC(Nc6ccc([C@@H]7c8ccc(O)cc8CC[C@@H]7c7ccccc7)cc6)C5)C4)CC3)C2=O)C(=O)N1 (stereo partly drawn) [Compound B170, 3-(1′-(2-(6-((4-((1R,2S)-6-hydroxy-2-phenyl-1,2,3,4-tetrahydronaphthalen-1-yl)phenyl)amino)-2-azaspiro[3.3]heptan-2-yl)-2-oxoethyl)-6-oxo-6,8-dihydro-2H,7H-spiro[furo[2,3-e]isoindole-3,4′-piperidin]-7-yl)piperidine-2,6-dione] | – | < 10 | < 1
O=C1CC[C@H](N2Cc3cc4c(cc3C2=O)OC[C@@H]2CN(C[C@H]3COC5(CCN(c6ccc([C@@H]7c8ccc(O)cc8CC[C@@H]7c7ccccc7)cc6)CC5)C3)CCN42)C(=O)N1 [Compound B398, (S)-3-((S)-3-(((S)-8-(4-((1R,2S)-6-hydroxy-2-phenyl-1,2,3,4-tetrahydronaphthalen-1-yl)phenyl)-1-oxa-8-azaspiro[4.5]decan-3-yl)methyl)-8-oxo-1,2,3,4,4a,5,8,10-octahydro-9H-pyrazino[1′,2′:4,5][1,4]oxazino[2,3-f]isoindol-9-yl)piperidine-2,6-dione] | < 1 | < 10 | –
O=C1CCC(N2Cc3c(ccc4c3OCC43CCN(CC4CC5(CCN(c6ccc([C@@H]7c8ccc(O)cc8CC[C@@H]7c7ccccc7)cc6)CC5)C4)CC3)C2=O)C(=O)N1 (stereo partly drawn) [Compound B313, 3-(1′-((7-(4-((1R,2S)-6-hydroxy-2-phenyl-1,2,3,4-tetrahydronaphthalen-1-yl)phenyl)-7-azaspiro[3.5]nonan-2-yl)methyl)-6-oxo-6,8-dihydro-2H,7H-spiro[furo[2,3-e]isoindole-3,4′-piperidin]-7-yl)piperidine-2,6-dione] | – | 10 to 100 | < 1
O=C1CCC(N2Cc3cc4c(cc3C2=O)OC[C@@H]2CN(CC3CCC5(CCN(c6ccc([C@@H]7c8ccc(O)cc8CC[C@@H]7c7ccccc7)cc6)CC5)OC3)CCN42)C(=O)N1 (stereo partly drawn) [Compound B332, 3-((4aS)-3-((9-(4-((1R,2S)-6-hydroxy-2-phenyl-1,2,3,4-tetrahydronaphthalen-1-yl)phenyl)-1-oxa-9-azaspiro[5.5]undecan-3-yl)methyl)-8-oxo-1,2,3,4,4a,5,8,10-octahydro-9H-pyrazino[1′,2′:4,5][1,4]oxazino[2,3-f]isoindol-9-yl)piperidine-2,6-dione] | 1 to 10 | < 10 | –
O=C1CCC(N2Cc3c(ccc4c3OC[C@H]3CN(CC(=O)N5CC(Oc6ccc([C@@H]7c8ccc(O)cc8CC[C@@H]7c7ccccc7)cc6)C5)CCN43)C2=O)C(=O)N1 (stereo partly shown) [Compound B246] | < 1 | < 10 | –
O=C1CCC(N2Cc3cc4c(cc3C2=O)OC[C@@H]2CN(CC(=O)N3CC(Nc5ccc([C@@H]6c7ccc(O)cc7CC[C@@H]6c6ccccc6)cc5)C3)CCN42)C(=O)N1 (stereo partly drawn) [Compound B207, 3-((S)-3-(2-(3-((4-((1R,2S)-6-hydroxy-2-phenyl-1,2,3,4-tetrahydronaphthalen-1-yl)phenyl)amino)azetidin-1-yl)-2-oxoethyl)-8-oxo-1,2,3,4,4a,5,8,10-octahydro-9H-pyrazino[1′,2′:4,5][1,4]oxazino[2,3-f]isoindol-9-yl)piperidine-2,6-dione] | < 1 | < 10 | –
O=C1CCC(N2Cc3c(ccc4c3OC[C@@H]3CN(CC5CCN(c6ccc([C@@H]7c8ccc(O)cc8CC[C@@H]7c7ccccc7)cc6)CC5)CCN43)C2=O)C(=O)N1 (stereo partly drawn) [Compound B306, 3-((S)-7-((1-(4-((1R,2S)-6-hydroxy-2-phenyl-1,2,3,4-tetrahydronaphthalen-1-yl)phenyl)piperidin-4-yl)methyl)-1-oxo-1,3,5,5a,6,7,8,9-octahydro-2H-pyrazino[1′,2′:4,5][1,4]oxazino[2,3-e]isoindol-2-yl)piperidine-2,6-dione] | < 1 | > 100 | –
O=C1CCC(N2Cc3c(ccc4c3OCC43CCN(CC(=O)N4CC5(CCN(c6ccc([C@@H]7c8ccc(O)cc8CC[C@@H]7c7ccccc7)cc6)C5)C4)CC3)C2=O)C(=O)N1 (stereo partly drawn) [Compound B212, 3-(1′-(2-(6-(4-((1R,2S)-6-hydroxy-2-phenyl-1,2,3,4-tetrahydronaphthalen-1-yl)phenyl)-2,6-diazaspiro[3.4]octan-2-yl)-2-oxoethyl)-6-oxo-6,8-dihydro-2H,7H-spiro[furo[2,3-e]isoindole-3,4′-piperidin]-7-yl)piperidine-2,6-dione] | – | < 10 | < 1
O=C1CCC(N2Cc3c(ccc4c3OC[C@H]3CN(CC5CC6(CCN(c7ccc([C@@H]8c9ccc(O)cc9CC[C@@H]8c8ccccc8)cc7)C6)C5)CCN43)C2=O)C(=O)N1 (stereo partly drawn) [Compound B232, 3-((R)-7-((6-(4-((1R,2S)-6-hydroxy-2-phenyl-1,2,3,4-tetrahydronaphthalen-1-yl)phenyl)-6-azaspiro[3.4]octan-2-yl)methyl)-1-oxo-1,3,5,5a,6,7,8,9-octahydro-2H-pyrazino[1′,2′:4,5][1,4]oxazino[2,3-e]isoindol-2-yl)piperidine-2,6-dione] | 1 to 10 | > 100 | –
O=C1CCC(N2Cc3cc4c(cc3C2=O)OC[C@@H]2CN(CC(=O)N3CCN(c5ccc([C@@H]6c7ccc(O)cc7CC[C@@H]6c6ccccc6)cc5)CC3)CCN42)C(=O)N1 (stereo partly drawn) [Compound B145, 3-((S)-3-(2-(4-(4-((1R,2S)-6-hydroxy-2-phenyl-1,2,3,4-tetrahydronaphthalen-1-yl)phenyl)piperazin-1-yl)-2-oxoethyl)-8-oxo-1,2,3,4,4a,5,8,10-octahydro-9H-pyrazino[1′,2′:4,5][1,4]oxazino[2,3-f]isoindol-9-yl)piperidine-2,6-dione] | < 1 | 10 to 100 | –
O=C1CC[C@H](N2Cc3c(ccc4c3OC[C@H]3CN(CC5COC6(CCN(c7ccc([C@@H]8c9cc(Cl)c(O)cc9CC[C@@H]8c8ccccc8)cc7)CC6)OC5)CCN43)C2=O)C(=O)N1 [Compound B340, (S)-3-((R)-7-((9-(4-((1R,2S)-7-chloro-6-hydroxy-2-phenyl-1,2,3,4-tetrahydronaphthalen-1-yl)phenyl)-1,5-dioxa-9-azaspiro[5.5]undecan-3-yl)methyl)-1-oxo-1,3,5,5a,6,7,8,9-octahydro-2H-pyrazino[1′,2′:4,5][1,4]oxazino[2,3-e]isoindol-2-yl)piperidine-2,6-dione] | 1 to 10 | 10 to 100 | –
O=C1CC[C@H](NC(=O)c2ccc3c(c2)OC[C@H]2CN(CC4CCN(c5ccc([C@@H]6c7ccc(O)cc7CC[C@@H]6c6ccccc6)cc5)CC4)CCN32)C(=O)N1 [Compound B256, (R)-N-((S)-2,6-dioxopiperidin-3-yl)-3-((1-(4-((1R,2S)-6-hydroxy-2-phenyl-1,2,3,4-tetrahydronaphthalen-1-yl)phenyl)piperidin-4-yl)methyl)-1,2,3,4,4a,5-hexahydrobenzo[b]pyrazino[1,2-d][1,4]oxazine-8-carboxamide] | 1 to 10 | 10 to 100 | –
O=C1CCC(N2Cc3cc4c(cc3C2=O)OC[C@@H]2CN(C3CN(C5CCN(c6ccc([C@@H]7c8ccc(O)cc8CC[C@@H]7c7ccccc7)cc6)CC5)C3)CCN42)C(=O)N1 (stereo partly drawn) [Compound B167, 3-((S)-3-(1-(1-(4-((1R,2S)-6-hydroxy-2-phenyl-1,2,3,4-tetrahydronaphthalen-1-yl)phenyl)piperidin-4-yl)azetidin-3-yl)-8-oxo-1,2,3,4,4a,5,8,10-octahydro-9H-pyrazino[1′,2′:4,5][1,4]oxazino[2,3-f]isoindol-9-yl)piperidine-2,6-dione] | < 1 | < 10 | –
O=C1CCC(N2Cc3cc4c(cc3C2=O)OC[C@@H]2CN(CC(=O)OC3CCN(c5ccc([C@@H]6c7ccc(O)cc7CC[C@@H]6c6ccccc6)cc5)CC3)CCN42)C(=O)N1 (stereo partly drawn) [Compound B342, 1-(4-((1R,2S)-6-hydroxy-2-phenyl-1,2,3,4-tetrahydronaphthalen-1-yl)phenyl)piperidin-4-yl 2-((4aS)-9-(2,6-dioxopiperidin-3-yl)-8-oxo-1,2,4a,5,9,10-hexahydro-8H-pyrazino[1′,2′:4,5][1,4]oxazino[2,3-f]isoindol-3(4H)-yl)acetate] | 1 to 10 | < 10 | –
O=C1CC[C@H](NC(=O)c2ccc3c(n2)OC[C@H]2CN(CC4COC5(CCN(c6ccc([C@@H]7c8ccc(O)cc8CC[C@@H]7c7ccccc7)cc6)CC5)C4)CCN32)C(=O)N1 (stereo partly drawn) [Compound B236, (4aR)-N-((S)-2,6-dioxopiperidin-3-yl)-3-((8-(4-((1R,2S)-6-hydroxy-2-phenyl-1,2,3,4-tetrahydronaphthalen-1-yl)phenyl)-1-oxa-8-azaspiro[4.5]decan-3-yl)methyl)-1,2,3,4,4a,5-hexahydropyrazino[1,2-d]pyrido[2,3-b][1,4]oxazine-8-carboxamide] | < 1 | 10 to 100 | –
